Ends that are not written are not given here.
Columns and labels:
[1] = tested on: rSMV binding to CaCo-2 cells; settings: serial dilutions of peptide, free and linked to carrier; Example 4 written in present tense
[2] = tested on: rNV binding to CaCo-2 cells; settings: serial dilutions of peptide, free and linked to carrier; Example 4 written in present tense

Row | Sequence | reduction of binding of rSMV to CaCo-2 cells [1] | reduction of binding of rNV to CaCo-2 cells [2]
1 | WLPAPIDKL [peptide 1800, WLPAPIDKL] | reduces binding | 
2 | WTRGGHGL [compound 1731, WTRGGHGL] |  | reduce the binding
3 | WTRGQHQL [compound 1732, WTRGQHQL] |  | reduce the binding
4 | WTRGSHNL [peptide 1730, WTRGSHNL] |  | reduce the binding

Reference: US20050152911A1, “Norovirus monoclonal antibodies and peptides” (priority 2003, published 2005)
